# Source: PubChem BioAssay AID2060336 (Molecular Pharmacology Branch, DTP, NCI, 2025)
# pIC50: −log10 of the molar value.
# System: 958767-090-R-J1-PDC spheroid growth
# Test: Anticancer human tumor 958767-090-R-J1-PDC patient-derived head and neck squamous carcinoma cell line growth inhibition [IpAb]
# Conditions: spheroids with HUVEC and MSC; for pIC50: curve of first compound; for viability, T/C: stronger effect = lower value
# Summary of the method: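 Spheroids of 60% malignant cells, 25% HUVEC and 15% MSC were exposed to targeted agents combined with ipatasertib or abemaciclib. Doses started at or near clinical Cmax (10 microM when unknown) and fell in half-log steps.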
# [1] = second compound 0.1 µM, first compound 0.0316 µM
# [2] = second compound 0.1 µM, first compound 0.1 µM
# [3] = second compound 0.1 µM, first compound 0.316 µM
# [4] = second compound 0.1 µM, first compound 1 µM
# [5] = second compound 0.316 µM, first compound 0.0316 µM
# [6] = second compound 0.316 µM, first compound 0.1 µM
# [7] = second compound 0.316 µM, first compound 0.316 µM
# [8] = second compound 0.316 µM, first compound 1 µM
# [9] = second compound 1 µM, first compound 0.0316 µM
# [10] = second compound 1 µM, first compound 0.1 µM
# [11] = second compound 1 µM, first compound 0.316 µM
# [12] = second compound 1 µM, first compound 1 µM
# [13] = second compound 3.16 µM, first compound 0.0316 µM
# [14] = second compound 3.16 µM, first compound 0.1 µM
# [15] = second compound 3.16 µM, first compound 0.316 µM
# [16] = second compound 3.16 µM, first compound 1 µM
# [17] = second compound 10 µM, first compound 0.0316 µM
# [18] = second compound 10 µM, first compound 0.1 µM
# [19] = second compound 10 µM, first compound 0.316 µM
# [20] = second compound 10 µM, first compound 1 µM
# [21] = second compound 0.1 µM, first compound 3.16 µM
# [22] = second compound 0.1 µM, first compound 10 µM
# [23] = second compound 0.316 µM, first compound 3.16 µM
# [24] = second compound 0.316 µM, first compound 10 µM
# [25] = second compound 1 µM, first compound 3.16 µM
# [26] = second compound 1 µM, first compound 10 µM
# [27] = second compound 3.16 µM, first compound 3.16 µM
# [28] = second compound 3.16 µM, first compound 10 µM
# [29] = second compound 10 µM, first compound 3.16 µM
# [30] = second compound 10 µM, first compound 10 µM
# 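For viability, T/C in this document: 100% = DMSO vehicle control wells.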
compound,measurement,setting,value
CC(=O)c1c(C)c2cnc(Nc3ccc(N4CCNCC4)cn3)nc2n(C2CCCC2)c1=O + CC(C)NCC(C(=O)N1CCN(c2ncnc3c2C(C)CC3O)CC1)c1ccc(Cl)cc1,pIC50,second compound 0.1 µM,< 6.52
same,pIC50,second compound 0.316 µM,6.52
same,pIC50,second compound 1 µM,> 9.02
same,pIC50,second compound 3.16 µM,> 9.02
same,pIC50,second compound 10 µM,> 9.02
same,"viability, T/C","second compound 0.1 µM, first compound 0.000949 µM",83.8%
same,"viability, T/C","second compound 0.1 µM, first compound 0.003 µM",70.5%
same,"viability, T/C","second compound 0.1 µM, first compound 0.00949 µM",68.7%
same,"viability, T/C","second compound 0.1 µM, first compound 0.03 µM",67.7%
same,"viability, T/C","second compound 0.1 µM, first compound 0.0949 µM",53.4%
same,"viability, T/C","second compound 0.1 µM, first compound 0.3 µM",64.8%
same,"viability, T/C","second compound 0.316 µM, first compound 0.000949 µM",56.4%
same,"viability, T/C","second compound 0.316 µM, first compound 0.003 µM",65.3%
same,"viability, T/C","second compound 0.316 µM, first compound 0.00949 µM",54.2%
same,"viability, T/C","second compound 0.316 µM, first compound 0.03 µM",46.1%
same,"viability, T/C","second compound 0.316 µM, first compound 0.0949 µM",57.3%
same,"viability, T/C","second compound 0.316 µM, first compound 0.3 µM",52.5%
same,"viability, T/C","second compound 1 µM, first compound 0.000949 µM",48.1%
same,"viability, T/C","second compound 1 µM, first compound 0.003 µM",46.2%
same,"viability, T/C","second compound 1 µM, first compound 0.00949 µM",49.8%
same,"viability, T/C","second compound 1 µM, first compound 0.03 µM",41.8%
same,"viability, T/C","second compound 1 µM, first compound 0.0949 µM",47.2%
same,"viability, T/C","second compound 1 µM, first compound 0.3 µM",40.2%
same,"viability, T/C","second compound 3.16 µM, first compound 0.000949 µM",43.1%
same,"viability, T/C","second compound 3.16 µM, first compound 0.003 µM",43.6%
same,"viability, T/C","second compound 3.16 µM, first compound 0.00949 µM",39.1%
same,"viability, T/C","second compound 3.16 µM, first compound 0.03 µM",41.5%
same,"viability, T/C","second compound 3.16 µM, first compound 0.0949 µM",37.7%
same,"viability, T/C","second compound 3.16 µM, first compound 0.3 µM",31.2%
same,"viability, T/C","second compound 10 µM, first compound 0.000949 µM",41.4%
same,"viability, T/C","second compound 10 µM, first compound 0.003 µM",41.7%
same,"viability, T/C","second compound 10 µM, first compound 0.00949 µM",42.9%
same,"viability, T/C","second compound 10 µM, first compound 0.03 µM",35.5%
same,"viability, T/C","second compound 10 µM, first compound 0.0949 µM",30.7%
same,"viability, T/C","second compound 10 µM, first compound 0.3 µM",25%
COc1c(OCCCN2CCOCC2)ccc2c3n(c(=NC(=O)c4cnc(N)nc4)nc12)CCN3 + CC(C)NCC(C(=O)N1CCN(c2ncnc3c2C(C)CC3O)CC1)c1ccc(Cl)cc1,pIC50,second compound 0.1 µM,7.85
same,pIC50,second compound 0.316 µM,8.35
same,pIC50,second compound 1 µM,> 8.50
same,pIC50,second compound 3.16 µM,> 8.50
same,pIC50,second compound 10 µM,> 8.50
same,"viability, T/C","second compound 0.1 µM, first compound 0.00316 µM",78%
same,"viability, T/C","second compound 0.1 µM, first compound 0.01 µM",55.2%
same,"viability, T/C",[1],36.6%
same,"viability, T/C",[2],22.6%
same,"viability, T/C",[3],9.18%
same,"viability, T/C",[4],4.85%
same,"viability, T/C","second compound 0.316 µM, first compound 0.00316 µM",52.9%
same,"viability, T/C","second compound 0.316 µM, first compound 0.01 µM",43.2%
same,"viability, T/C",[5],25.7%
same,"viability, T/C",[6],15.6%
same,"viability, T/C",[7],6.21%
same,"viability, T/C",[8],3.9%
same,"viability, T/C","second compound 1 µM, first compound 0.00316 µM",42.1%
same,"viability, T/C","second compound 1 µM, first compound 0.01 µM",32.6%
same,"viability, T/C",[9],26.6%
same,"viability, T/C",[10],15.5%
same,"viability, T/C",[11],5.63%
same,"viability, T/C",[12],3.82%
same,"viability, T/C","second compound 3.16 µM, first compound 0.00316 µM",41.7%
same,"viability, T/C","second compound 3.16 µM, first compound 0.01 µM",24.8%
same,"viability, T/C",[13],20.9%
same,"viability, T/C",[14],11.5%
same,"viability, T/C",[15],6.46%
same,"viability, T/C",[16],3.61%
same,"viability, T/C","second compound 10 µM, first compound 0.00316 µM",28.3%
same,"viability, T/C","second compound 10 µM, first compound 0.01 µM",19.8%
same,"viability, T/C",[17],14.1%
same,"viability, T/C",[18],9.67%
same,"viability, T/C",[19],4.23%
same,"viability, T/C",[20],3.22%
Cc1nc(NC(=O)N2CCCC2C(N)=O)sc1-c1ccnc(C(C)(C)C(F)(F)F)c1 (stereo not given) + CC(C)NCC(C(=O)N1CCN(c2ncnc3c2C(C)CC3O)CC1)c1ccc(Cl)cc1,pIC50,second compound 0.1 µM,6.87
same,pIC50,second compound 0.316 µM,7.20
same,pIC50,second compound 1 µM,> 7.50
same,pIC50,second compound 3.16 µM,> 7.50
same,pIC50,second compound 10 µM,> 7.50
same,"viability, T/C",[1],72.7%
same,"viability, T/C",[2],49.6%
same,"viability, T/C",[3],38.1%
same,"viability, T/C",[4],34.2%
same,"viability, T/C",[21],20.7%
same,"viability, T/C",[22],12.2%
same,"viability, T/C",[5],54.4%
same,"viability, T/C",[6],49.1%
same,"viability, T/C",[7],32.3%
same,"viability, T/C",[8],26.7%
same,"viability, T/C",[23],16.2%
same,"viability, T/C",[24],11.1%
same,"viability, T/C",[9],46.6%
same,"viability, T/C",[10],32.7%
same,"viability, T/C",[11],30.9%
same,"viability, T/C",[12],20.9%
same,"viability, T/C",[25],15.6%
same,"viability, T/C",[26],9.52%
same,"viability, T/C",[13],38.4%
same,"viability, T/C",[14],28.4%
same,"viability, T/C",[15],24.2%
same,"viability, T/C",[16],18.3%
same,"viability, T/C",[27],14.4%
same,"viability, T/C",[28],7.8%
same,"viability, T/C",[17],31.6%
same,"viability, T/C",[18],24.6%
same,"viability, T/C",[19],16.5%
same,"viability, T/C",[20],10.8%
same,"viability, T/C",[29],9.96%
same,"viability, T/C",[30],5.52%
Cn1nccc1Nc1nccc(-c2ccn(C(CO)c3ccc(Cl)c(F)c3)c(=O)c2)n1 (stereo not given) + CC(C)NCC(C(=O)N1CCN(c2ncnc3c2C(C)CC3O)CC1)c1ccc(Cl)cc1,pIC50,second compound 0.1 µM,6.31
same,pIC50,second compound 0.316 µM,6.86
same,pIC50,second compound 1 µM,7.19
same,pIC50,second compound 3.16 µM,7.41
same,pIC50,second compound 10 µM,> 7.50
same,"viability, T/C",[1],86.8%
same,"viability, T/C",[2],65.5%
same,"viability, T/C",[3],56.1%
same,"viability, T/C",[4],43.7%
same,"viability, T/C",[21],28.2%
same,"viability, T/C",[22],13.4%
same,"viability, T/C",[5],66.5%
same,"viability, T/C",[6],46.4%
same,"viability, T/C",[7],44.6%
same,"viability, T/C",[8],32.8%
same,"viability, T/C",[23],17.7%
same,"viability, T/C",[24],5.2%
same,"viability, T/C",[9],54.1%
same,"viability, T/C",[10],47.9%
same,"viability, T/C",[11],36.1%
same,"viability, T/C",[12],23.1%
same,"viability, T/C",[25],13.2%
same,"viability, T/C",[26],3.79%
same,"viability, T/C",[13],53.6%
same,"viability, T/C",[14],37.1%
same,"viability, T/C",[15],27.8%
same,"viability, T/C",[16],19.4%
same,"viability, T/C",[27],10.4%
same,"viability, T/C",[28],4.11%
same,"viability, T/C",[17],44.7%
same,"viability, T/C",[18],35%
same,"viability, T/C",[19],24.1%
same,"viability, T/C",[20],15.2%
same,"viability, T/C",[29],8.11%
same,"viability, T/C",[30],3.09%
